We go through 1 molecule from patent publication US10118893B2, “Method of making complex nano particles and using the same to reduce cell viability” (Umm Al-Qura University, priority 2014, dated 2018).

Data set [1] concerns sulphur reducing bacteria. Briefly: Antibacterial activity against sulphur reducing bacteria, inhibition zone. The class given is cell-based. The source says:
The results of the synthesized cationic surfactants against sulphur reducing bacteria recorded in Table 4.

Another data set concerns MCF7 (Breast carcinoma). Put plainly: Cytotoxic activity on human tumor cell line MCF7. The conditions noted are these: dose to reduce survival to 50%. It is filed as cell-based. How it is done:
(§1) Olylammonium hydrogen selenites hydrogen selenite with its cobalt and platinum complexes were investigated as potential selective, anticancer prodrugs. They were tested by using Ehrlich Acites Carcinoma (EAC) as a model system of mice cell tumor. These compounds were also Tested in vitro on human […] monolayer tumor cell lines: MCF7 (Breast carcinoma), HEPG2 (liver carcenoma), U 251 ([…]) and HCT116 (colon carcinoma).
(§2) The results of the cytotoxic activity on human tumor cell lines were determined according to the dose values of drug exposure for cell lines to reduce survival to 50% (Ic50). The experimental results recorded in Table (3).

The test system of data set [2] is Ehrlich ascites carcinoma (EAC) cells. Put plainly: Antitumor activity using Ehrlich ascites carcinoma (EAC), in vitro percentage of nonviable cells. It is filed as cell-based, mice. The note with it: NVC %. The method, then: as §1
Ehrlich ascites carcinoma cells as a model system was based on the finding that it is excellent tool for studying the biological behavior of malignant tumors and drug action with cells. A line of Ehrlich ascites carcinoma (EAC) which used in the present study had been kindly supplied from National Cancer Institute, Cairo, Egypt, and maintained in female Swiss albino mice through weekly […] transplantation of 2.5×10^6 tumor cells/mouse. EAC cells were obtained by needle aspiration with aseptic condition. The ascetic fluid was diluted with sterile saline so that 0.1 ml contains 2.5×10^6 cells counted microscopically using a haemocytometer. In vitro studying of these compounds antitumor activity was determined according to the percentage of nonviable cells (NVC %) which was calculated by the following equation NVC %=[number of NVC/total number of cells][…].

For another data set, the system named is HELA. Put plainly: Cytotoxic activity on human tumor cell line HELA. The class given is cell-based. The note with it: dose to reduce survival to 50%. How it is done: as §1, §2
Another data set has as its system HCT116 (colon carcinoma). Put plainly: Cytotoxic activity on human tumor cell line HCT116. It is filed as cell-based. The conditions noted are these: dose to reduce survival to 50%. The method, then:
as §1, §2

Data set [3] in a line: Critical micelle concentration (CMC) and surface parameters of the surfactants. Also on record: PC20: unit not given here. The class given is physicochemical. The source says: That fact could be explained from the unique property of the metal complexes in water. That is the complexes retain its unity in their solutions, which increased their volume in the aqueous media and then repulsion is occurred between the hydrophobic chain and water molecules. […] The efficiency “PC20” increase with increasing molar ratio of methylene units. These due to the fact that the efficiency of adsorption at interfaces increase linearly with increase in the carbon atoms in hydrophobic group. In case of the prepared parent cationic surfactants by increasing the number methylene units Maximum surface excess Γmax increases, this due to migration of molecules to the water-air interface. The consequence increase of Γmax leads to crowdiness occurred at the interface which causing decrease in Minimum area per molecule Amin values. That is due to the minimum surface area decrease with increasing the hydrophobic chain length of the synthesized surfactant molecules. The standard free energies of micellization ΔG° mic and adsorption ΔG° ads values are always negative indicating the spontaneously of these two processes but there is more increase in negativity of ΔG° ads rather than those of micellization indicating the tendency of the molecules to be adsorbed at the interface.

The next data set relates to HEPG2 (liver carcenoma). Put plainly: Cytotoxic activity on human tumor cell line HEPG2. The note with it: dose to reduce survival to 50%. It is filed as cell-based. The method, then:
as §1, §2

On to `CCCCCCCC/C=C\CCCCCCCCN.O=[Se](O)O` [IIa, olylammonium hydrogen selenite], for which, in data set [1], the Inhibition zone diameter was found to be 25 mm/mg sample. Besides, the “MCF7 (IC50)” value in the data set with MCF7 (Breast carcinoma) is “does not reach to Ic50”. The Percent nonviable cells in data set [2] (Conc. 25 μg/ml) was 10%; in data set [2] (Conc. 50 μg/ml), 20%; in data set [2] (Conc. 100 μg/ml), 40%. For the same molecule, the “HELA (IC50)” value in the data set with HELA is listed as “does not reach to Ic50”. Also, in the data set with HCT116 (colon carcinoma), the “HCT116 (IC50)” value is “does not reach to Ic50”. In data set [3], the “Δ Gads/Amin” value is given as −46.8. In data set [3], this molecule had a ΠCMC of 39 mN/m. In addition, the “CMC × 10−3” value in data set [3] (critical micelle concentration, values × 10−3) is 1.3. In data set [3] (efficiency), this molecule returned a PC20 of 3.8. Moreover, in data set [3] (maximum surface excess, values × 10−11), the “Γmax × 10−11” value worked out at 10.6 Mole/cm^2. This molecule showed an A min in data set [3] (minimum area per molecule) of 1.6 nm2. Moreover, in data set [3] (standard free energy of adsorption), the “Δ Gads” value is on record as −67.7. Also, in data set [3] (standard free energy of micellization), the “Δ Gmic” value is on record as −34.1. The γCMC in data set [3] (surface tension at CMC) came to 33 mN/m. Moreover, the “HEPG2 (IC50)” value in the data set with HEPG2 (liver carcenoma) was “does not reach to Ic50”.
